Laboratory results taken from ChEMBL document CHEMBL1201861, “Genomics of Drug Sensitity in Cancer screening data, Wellcome Trust Sanger Institute”.

Assays:
Format in all cases: functional, cell-based
HOP-92 = experiment: cells; details: Homo sapiens;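 further: cell viability readout, with IC50 reflecting inhibition of HOP-92 cell growth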
Description: SANGER: Inhibition of human HOP-92 cell growth in a cell viability assay.

HN = experiment: cells; details: Homo sapiens
Description: SANGER: Inhibition of human HN cell growth in a cell viability assay.

PF-382 = experiment: cells; details: Homo sapiens
Description: SANGER: Inhibition of human PF-382 cell growth in a cell viability assay.

RO82-W-1 = experiment: cells; details: Homo sapiens;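 further: growth inhibition of human RO82-W-1 cells, measured with a cell viability assay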
Description: SANGER: Inhibition of human RO82-W-1 cell growth in a cell viability assay.

SJRH30 = experiment: cells; details: Homo sapiens;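 further: growth inhibition of human SJRH30 cells, read out with a cell viability assay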
Description: SANGER: Inhibition of human SJRH30 cell growth in a cell viability assay.

BOKU = experiment: cells; details: Homo sapiens;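 further: growth inhibition of the human BOKU cell line, read out by a cell viability assay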
Description: SANGER: Inhibition of human BOKU cell growth in a cell viability assay.

DU-145 = experiment: cells; details: Homo sapiens
Description: SANGER: Inhibition of human DU-145 cell growth in a cell viability assay.

SIMA = experiment: cells; details: Homo sapiens;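 further: growth inhibition of SIMA cells, measured with a cell viability readout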
Description: SANGER: Inhibition of human SIMA cell growth in a cell viability assay.

HSC-4 = experiment: cells; details: Homo sapiens;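 further: growth inhibition of human HSC-4 cells, read out with a cell viability assay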
Description: SANGER: Inhibition of human HSC-4 cell growth in a cell viability assay.

HT-3 = experiment: cells; details: Homo sapiens;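 further: growth inhibition measured with a cell viability readout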
Description: SANGER: Inhibition of human HT-3 cell growth in a cell viability assay.

ESS-1 = experiment: cells; details: Homo sapiens;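 further: growth inhibition of human ESS-1 cells, read out by a cell viability assay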
Description: SANGER: Inhibition of human ESS-1 cell growth in a cell viability assay.

Detroit 562 = experiment: cells; details: Homo sapiens;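 further: growth inhibition of human Detroit 562 cells, read out by a cell viability assay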
Description: SANGER: Inhibition of human Detroit562 cell growth in a cell viability assay.

M059J = experiment: cells; details: Homo sapiens;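 further: growth inhibition of M059J cells, read out with a cell viability assay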
Description: SANGER: Inhibition of human M059J cell growth in a cell viability assay.

HCC1599 = experiment: cells; details: Homo sapiens;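 further: growth inhibition of HCC1599 cells, read out in a cell viability assay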
Description: SANGER: Inhibition of human HCC1599 cell growth in a cell viability assay.

NCI-H650 = experiment: cells; details: Homo sapiens;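 further: growth inhibition of NCI-H650 cells, read out by a viability assay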
Description: SANGER: Inhibition of human NCI-H650 cell growth in a cell viability assay.

HT55 = experiment: cells; details: Homo sapiens;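 further: cell viability readout measuring growth inhibition of human HT55 cells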
Description: SANGER: Inhibition of human HT55 cell growth in a cell viability assay.

BC1 cell line = experiment: SANGER: Inhibition of human BC-1 cell growth in a cell viability assay.
GDM-1 = experiment: cells; details: Homo sapiens;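 further: cell viability readout used to measure growth inhibition of human GDM-1 cells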
Description: SANGER: Inhibition of human GDM-1 cell growth in a cell viability assay.

LCLC-97TM1 = experiment: cells; details: Homo sapiens;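 further: cell viability assay measuring growth inhibition of human LCLC-97TM1 cells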
Description: SANGER: Inhibition of human LCLC-97TM1 cell growth in a cell viability assay.

OVCAR-5 = experiment: cells; details: Homo sapiens;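 further: growth inhibition of human OVCAR-5 cells, read out with a cell viability assay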
Description: SANGER: Inhibition of human OVCAR-5 cell growth in a cell viability assay.

KOSC-2 = experiment: cells; details: Homo sapiens;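 further: growth inhibition of KOSC-2 cells, read out by a cell viability assay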
Description: SANGER: Inhibition of human KOSC-2 cell growth in a cell viability assay.

HCC1937 = experiment: cells; details: Homo sapiens;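 further: growth inhibition measured with a cell viability read-out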
Description: SANGER: Inhibition of human HCC1937 cell growth in a cell viability assay.

COLO-679 = experiment: cells; details: Homo sapiens
Description: SANGER: Inhibition of human COLO-679 cell growth in a cell viability assay.

D-336MG = experiment: cells; details: Homo sapiens
Description: SANGER: Inhibition of human D-336MG cell growth in a cell viability assay.

BCPAP = experiment: cells; details: Homo sapiens;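 further: growth inhibition of BCPAP cells, read out in a cell viability assay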
Description: SANGER: Inhibition of human BCPAP cell growth in a cell viability assay.

DG-75 = experiment: cells; details: Homo sapiens;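 further: growth inhibition of DG-75 cells, read out with a cell viability assay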
Description: SANGER: Inhibition of human DG-75 cell growth in a cell viability assay.

HCC1419 = experiment: cells; details: Homo sapiens;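 further: growth inhibition of human HCC1419 cells, read out as cell viability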
Description: SANGER: Inhibition of human HCC1419 cell growth in a cell viability assay.

EFO-27 = experiment: cells; details: Homo sapiens;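 further: growth inhibition of EFO-27 cells, read out with a cell viability assay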
Description: SANGER: Inhibition of human EFO-27 cell growth in a cell viability assay.

AU565 = experiment: cells; details: Homo sapiens;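 further: cell viability assay measuring growth inhibition of human AU565 cells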
Description: SANGER: Inhibition of human AU565 cell growth in a cell viability assay.

CWR22R = experiment: cells; details: Homo sapiens, 22Rv1;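 further: growth inhibition of 22Rv1 cells, read out with a cell viability assay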
Description: SANGER: Inhibition of human 22RV1 cell growth in a cell viability assay.

COLO-792 = experiment: cells; details: Homo sapiens
Description: SANGER: Inhibition of human COLO-792 cell growth in a cell viability assay.

LOUCY = experiment: cells; details: Homo sapiens;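 further: growth inhibition of human LOUCY cells, read out with a cell viability assay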
Description: SANGER: Inhibition of human LOUCY cell growth in a cell viability assay.

LoVo = experiment: cells; details: Homo sapiens;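 further: growth inhibition of human LoVo cells, read out with a cell viability assay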
Description: SANGER: Inhibition of human LoVo cell growth in a cell viability assay.

NCI-H2009 = experiment: cells; details: Homo sapiens;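 further: cell viability assay measuring inhibition of NCI-H2009 cell growth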
Description: SANGER: Inhibition of human NCI-H2009 cell growth in a cell viability assay.

IGR-1 = experiment: cells; details: Homo sapiens;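 further: growth inhibition of human IGR-1 cells, read out with a cell viability assay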
Description: SANGER: Inhibition of human IGR-1 cell growth in a cell viability assay.

EB-3 = experiment: cells; details: Homo sapiens;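 further: human EB-3 cells, growth inhibition read out via a cell viability assay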
Description: SANGER: Inhibition of human EB-3 cell growth in a cell viability assay.

YAPC = experiment: cells; details: Homo sapiens;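 further: growth inhibition of YAPC cells, measured with a cell viability assay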
Description: SANGER: Inhibition of human YAPC cell growth in a cell viability assay.

H4 = experiment: cells; details: Homo sapiens
Description: SANGER: Inhibition of human H4 cell growth in a cell viability assay.

TE-15 = experiment: cells; details: Homo sapiens;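 further: cell viability readout of growth inhibition in TE-15 cells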
Description: SANGER: Inhibition of human TE-15 cell growth in a cell viability assay.

TALL-1 = experiment: cells; details: Homo sapiens;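 further: growth inhibition of cultured human TALL-1 cells, read out by a cell viability assay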
Description: SANGER: Inhibition of human TALL-1 cell growth in a cell viability assay.

A2780 = experiment: cells; details: Homo sapiens;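 further: growth inhibition of A2780 cells, read out with a cell viability assay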
Description: SANGER: Inhibition of human A2780 cell growth in a cell viability assay.

HMV-2 cell line = experiment: cells; details: Homo sapiens;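 further: growth inhibition of HMV-II cells, read out with a cell viability assay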
Description: SANGER: Inhibition of human HMV-II cell growth in a cell viability assay.

GP5d = experiment: cells; details: Homo sapiens;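 further: growth inhibition of human GP5d cells, read out with a cell viability assay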
Description: SANGER: Inhibition of human GP5d cell growth in a cell viability assay.

OAW-42 = experiment: cells; details: Homo sapiens;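 further: growth inhibition of OAW-42 cells, read out with a cell viability assay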
Description: SANGER: Inhibition of human OAW-42 cell growth in a cell viability assay.

NCI-H2452 = experiment: cells; details: Homo sapiens;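 further: growth inhibition of NCI-H2452 cells, read out with a cell viability assay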
Description: SANGER: Inhibition of human NCI-H2452 cell growth in a cell viability assay.

SK-MEL-24 = experiment: cells; details: Homo sapiens;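 further: growth inhibition read out by a cell viability assay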
Description: SANGER: Inhibition of human SK-MEL-24 cell growth in a cell viability assay.

BXPC-3 = experiment: cells; details: Homo sapiens;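 further: growth inhibition of human BxPC-3 cells, read out by a cell viability assay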
Description: SANGER: Inhibition of human BxPC-3 cell growth in a cell viability assay.

CAL-27 = experiment: cells; details: Homo sapiens;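 further: Viability-based readout, IC50 reflecting inhibition of CAL-27 cell growth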
Description: SANGER: Inhibition of human CAL-27 cell growth in a cell viability assay.

NCI-H2052 = experiment: cells; details: Homo sapiens;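 further: growth inhibition of NCI-H2052 cells, read out with a cell viability assay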
Description: SANGER: Inhibition of human NCI-H2052 cell growth in a cell viability assay.

NCI-H460 = experiment: cells; details: Homo sapiens;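 further: cell viability assay scoring growth inhibition of human NCI-H460 cells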
Description: SANGER: Inhibition of human NCI-H460 cell growth in a cell viability assay.

NCI-H1437 = experiment: cells; details: Homo sapiens;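 further: growth inhibition of human NCI-H1437 cells, read out by a cell viability assay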
Description: SANGER: Inhibition of human NCI-H1437 cell growth in a cell viability assay.

KARPAS-422 = experiment: cells; details: Homo sapiens
Description: SANGER: Inhibition of human KARPAS-422 cell growth in a cell viability assay.

NCI-H2087 = experiment: cells; details: Homo sapiens;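 further: growth inhibition determined with a cell viability readout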
Description: SANGER: Inhibition of human NCI-H2087 cell growth in a cell viability assay.

VM-CUB-1 = experiment: cells; details: Homo sapiens;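 further: cell viability assay measuring growth inhibition of the human VM-CUB-1 cell line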
Description: SANGER: Inhibition of human VM-CUB-1 cell growth in a cell viability assay.

Kasumi 1 = experiment: cells; details: Homo sapiens;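 further: growth inhibition of human Kasumi-1 cells, read out by a cell viability assay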
Description: SANGER: Inhibition of human KASUMI-1 cell growth in a cell viability assay.

ST486 = experiment: SANGER: Inhibition of human ST486 cell growth in a cell viability assay.
IGROV-1 = experiment: cells; details: Homo sapiens;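 further: reduction of IGROV-1 cell growth, read out with a viability assay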
Description: SANGER: Inhibition of human IGROV-1 cell growth in a cell viability assay.

KP-4 = experiment: cells; details: Homo sapiens;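 further: human KP-4 cells, with growth inhibition read out through a cell viability assay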
Description: SANGER: Inhibition of human KP-4 cell growth in a cell viability assay.

NCI-H1755 = experiment: cells; details: Homo sapiens;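 further: cell viability readout used to measure growth inhibition of NCI-H1755 cells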
Description: SANGER: Inhibition of human NCI-H1755 cell growth in a cell viability assay.

HCC 2998 = experiment: cells; details: Homo sapiens
Description: SANGER: Inhibition of human HCC2998 cell growth in a cell viability assay.

T84 = experiment: cells; details: Homo sapiens
Description: SANGER: Inhibition of human T84 cell growth in a cell viability assay.

OPM-2 = experiment: cells; details: Homo sapiens
Description: SANGER: Inhibition of human OPM-2 cell growth in a cell viability assay.

HT-1080 = experiment: cells; details: Homo sapiens
Description: SANGER: Inhibition of human HT-1080 cell growth in a cell viability assay.

EFM-19 = experiment: cells; details: Homo sapiens
Description: SANGER: Inhibition of human EFM-19 cell growth in a cell viability assay.

HuO9 = experiment: cells; details: Homo sapiens
Description: SANGER: Inhibition of human HuO9 cell growth in a cell viability assay.

O=c1[nH]c2ccccc2n1C1CCN(Cc2ccc(-c3nc4cc5[nH]cnc5cc4nc3-c3ccccc3)cc2)CC1
IC50 (HOP-92): > 2560 nM | IC50 (HN): > 2560 nM | IC50 (PF-382): > 2560 nM | IC50 (RO82-W-1): > 2560 nM | IC50 (SJRH30): > 2560 nM | IC50 (BOKU): > 2560 nM | IC50 (DU-145): > 2560 nM | IC50 (SIMA): > 2560 nM | IC50 (HSC-4): > 2560 nM | IC50 (HT-3): > 2560 nM | IC50 (ESS-1): > 2560 nM | IC50 (Detroit 562): > 2560 nM | IC50 (M059J): > 2560 nM | IC50 (HCC1599): > 2560 nM | IC50 (NCI-H650): > 2560 nM | IC50 (HT55): > 2560 nM | IC50 (BC1 cell line): > 2560 nM | IC50 (GDM-1): > 2560 nM | IC50 (LCLC-97TM1): 2300 nM | IC50 (OVCAR-5): > 2560 nM | IC50 (KOSC-2): > 2560 nM | IC50 (HCC1937): > 2560 nM | IC50 (COLO-679): > 2560 nM | IC50 (D-336MG): > 2560 nM | IC50 (BCPAP): > 2560 nM | IC50 (DG-75): > 2560 nM | IC50 (HCC1419): 2340 nM | IC50 (EFO-27): > 2560 nM | IC50 (AU565): 1240 nM | IC50 (CWR22R): > 2560 nM | IC50 (COLO-792): > 2.56 µM | IC50 (LOUCY): > 2560 nM | IC50 (LoVo): > 2560 nM | IC50 (NCI-H2009): > 2560 nM | IC50 (IGR-1): > 2560 nM | IC50 (EB-3): > 2560 nM | IC50 (YAPC): > 2560 nM | IC50 (H4): > 2560 nM | IC50 (TE-15): > 2560 nM | IC50 (TALL-1): > 2.56 µM | IC50 (A2780): > 2560 nM | IC50 (HMV-2 cell line): > 2560 nM | IC50 (GP5d): > 2560 nM | IC50 (OAW-42): > 2560 nM | IC50 (NCI-H2452): > 2560 nM | IC50 (SK-MEL-24): > 2560 nM | IC50 (BXPC-3): 2220 nM | IC50 (CAL-27): > 2560 nM | IC50 (NCI-H2052): > 2560 nM | IC50 (NCI-H460): > 2560 nM | IC50 (NCI-H1437): > 2560 nM | IC50 (KARPAS-422): > 2560 nM | IC50 (NCI-H2087): > 2560 nM | IC50 (VM-CUB-1): > 2560 nM | IC50 (Kasumi 1): 1410 nM | IC50 (ST486): > 2560 nM | IC50 (IGROV-1): 723 nM | IC50 (KP-4): > 2560 nM | IC50 (NCI-H1755): 1060 nM | IC50 (HCC 2998): > 2560 nM | IC50 (T84): > 2560 nM | IC50 (OPM-2): > 2560 nM | IC50 (HT-1080): > 2560 nM | IC50 (EFM-19): 564 nM | IC50 (HuO9): 1550 nM

Fc1cc(-c2cc[nH]/c(=N/c3ccc(-n4cnc(N5CCOCC5)n4)cc3)n2)cc(N2CCOCC2)c1
IC50 (HOP-92): 2410 nM | IC50 (HN): 4240 nM | IC50 (PF-382): 476 nM | IC50 (RO82-W-1): > 5120 nM | IC50 (SJRH30): 349 nM | IC50 (BOKU): 3100 nM | IC50 (DU-145): 480 nM | IC50 (SIMA): 782 nM | IC50 (HSC-4): 4250 nM | IC50 (HT-3): 102 nM | IC50 (ESS-1): 659 nM | IC50 (Detroit 562): 321 nM | IC50 (M059J): 926 nM | IC50 (HCC1599): 466 nM | IC50 (NCI-H650): 141 nM | IC50 (HT55): > 5120 nM | IC50 (BC1 cell line): 491 nM | IC50 (GDM-1): 204 nM | IC50 (LCLC-97TM1): 163 nM | IC50 (OVCAR-5): 181 nM | IC50 (KOSC-2): 531 nM | IC50 (HCC1937): 1230 nM | IC50 (COLO-679): 250 nM | IC50 (D-336MG): 1010 nM | IC50 (BCPAP): 932 nM | IC50 (DG-75): 1290 nM | IC50 (HCC1419): 1090 nM | IC50 (EFO-27): 413 nM | IC50 (AU565): 285 nM | IC50 (CWR22R): 1010 nM | IC50 (COLO-792): > 5.12 µM | IC50 (LOUCY): 112 nM | IC50 (LoVo): 437 nM | IC50 (NCI-H2009): 508 nM | IC50 (IGR-1): 164 nM | IC50 (EB-3): 1830 nM | IC50 (YAPC): 2290 nM | IC50 (H4): 439 nM | IC50 (TE-15): 375 nM | IC50 (TALL-1): > 5.12 µM | IC50 (A2780): 653 nM | IC50 (HMV-2 cell line): 151 nM | IC50 (GP5d): 514 nM | IC50 (OAW-42): 877 nM | IC50 (NCI-H2452): 1690 nM | IC50 (SK-MEL-24): > 5120 nM | IC50 (BXPC-3): 351 nM | IC50 (CAL-27): 66 nM | IC50 (NCI-H2052): 1650 nM | IC50 (NCI-H460): 337 nM | IC50 (NCI-H1437): 243 nM | IC50 (KARPAS-422): 406 nM | IC50 (NCI-H2087): 341 nM | IC50 (VM-CUB-1): 3480 nM | IC50 (Kasumi 1): 340 nM | IC50 (ST486): 190 nM | IC50 (IGROV-1): 97.7 nM | IC50 (KP-4): 577 nM | IC50 (NCI-H1755): 349 nM | IC50 (HCC 2998): 2030 nM | IC50 (T84): 1520 nM | IC50 (OPM-2): 514 nM | IC50 (HT-1080): 428 nM | IC50 (EFM-19): 760 nM | IC50 (HuO9): 638 nM

CC(C)=CC[C@@H](O)C1=CC(=O)c2c(O)ccc(O)c2C1=O [SHIKONIN]
IC50 (HOP-92): 2010 nM | IC50 (HN): 1370 nM | IC50 (PF-382): 790 nM | IC50 (RO82-W-1): 2840 nM | IC50 (SJRH30): 369 nM | IC50 (BOKU): 1870 nM | IC50 (DU-145): 193 nM | IC50 (SIMA): 2320 nM | IC50 (HSC-4): 2120 nM | IC50 (HT-3): 948 nM | IC50 (ESS-1): > 16000 nM | IC50 (Detroit 562): > 16000 nM | IC50 (M059J): 134 nM | IC50 (HCC1599): 388 nM | IC50 (NCI-H650): 665 nM | IC50 (HT55): 1690 nM | IC50 (BC1 cell line): 2680 nM | IC50 (GDM-1): 2680 nM | IC50 (LCLC-97TM1): 613 nM | IC50 (OVCAR-5): 1120 nM | IC50 (KOSC-2): 1490 nM | IC50 (HCC1937): 1660 nM | IC50 (COLO-679): 184 nM | IC50 (D-336MG): 1750 nM | IC50 (BCPAP): 923 nM | IC50 (DG-75): 1170 nM | IC50 (HCC1419): 1690 nM | IC50 (EFO-27): 330 nM | IC50 (AU565): 1240 nM | IC50 (CWR22R): 4610 nM | IC50 (COLO-792): > 16 µM | IC50 (LOUCY): 586 nM | IC50 (LoVo): 1340 nM | IC50 (NCI-H2009): 20.5 nM | IC50 (IGR-1): 154 nM | IC50 (EB-3): 1140 nM | IC50 (YAPC): > 16000 nM | IC50 (H4): 284 nM | IC50 (TE-15): 400 nM | IC50 (TALL-1): > 16 µM | IC50 (A2780): 2560 nM | IC50 (HMV-2 cell line): 56.4 nM | IC50 (GP5d): 1340 nM | IC50 (OAW-42): 578 nM | IC50 (NCI-H2452): > 16000 nM | IC50 (SK-MEL-24): 1130 nM | IC50 (BXPC-3): 334 nM | IC50 (CAL-27): > 16000 nM | IC50 (NCI-H2052): 61.1 nM | IC50 (NCI-H460): 1280 nM | IC50 (NCI-H1437): 1560 nM | IC50 (KARPAS-422): > 16000 nM | IC50 (NCI-H2087): 441 nM | IC50 (VM-CUB-1): 1030 nM | IC50 (Kasumi 1): 124 nM | IC50 (ST486): < 62.5 nM | IC50 (IGROV-1): 55.6 nM | IC50 (KP-4): 501 nM | IC50 (NCI-H1755): > 16000 nM | IC50 (HCC 2998): > 16000 nM | IC50 (T84): 14500 nM | IC50 (OPM-2): 343 nM | IC50 (HT-1080): 260 nM | IC50 (EFM-19): 212 nM | IC50 (HuO9): 1660 nM
